Here are results for 36 molecules from US20260216294A1, “BETA 2-ADRENERGIC RECEPTOR AGONISTS FOR TREATMENT OR PREVENTION OF MUSCLE WASTING” (ATROGI AB, priority 2023, published 2026).

Test [1] deals with L6-myotubes. Nature of the test: Measurement of intracellular cAMP levels in differentiated L6-myotubes (Biological Example 3). Particulars: for Emax at 10 µM: 0.25 h. It counts as cell-based. Put shortly:
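Serum-starved differentiated L6 myotubes stimulated 15 min with test compound at 1×10^−5 M final (isoprenaline as reference) in HBSS with 1% BSA, 5 mM HEPES, 1 mM IBMX, pH 7.4. Cells EtOH-extracted, lysed, and intracellular cAMP measured by AlphaScreen.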

Test [2] has as its system L6-myotubes. Nature of the test: Glucose uptake in differentiated L6-myotubes (Biological Example 2). It counts as cell-based. Particulars: for Emax at 10 µM: read-out: Biological example 2 (GU). In short, it runs like this:
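Differentiated L6 myotubes were serum-starved overnight in 0.5% fatty-acid-free BSA and then stimulated with compound or isoprenaline at 1×10^−5 M final. After 1 h 40 min cells were washed and re-dosed in glucose-free medium. Twenty minutes later, uptake of 50 nM ^3H-2-deoxyglucose over 10 min was measured by scintillation counting of NaOH lysates.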

The mark [3] stands for this setting: intracellular cAMP, compound at 10 μM relative to isoproterenol at 10 μM.
Setting [4] is: glucose uptake, compound at 10 μM relative to isoproterenol at 10 μM.
The mark [5] stands for this setting: intracellular cAMP in differentiated L6-myotubes, compound at 10 μM, activity relative to isoproterenol at 10 μM.
[6] abbreviates: glucose uptake in differentiated L6-myotubes, compound at 10 μM, activity relative to isoproterenol at 10 μM.

`CCCCNC[C@H](O)c1cnc(NC(=O)C(C)C)s1` [Compound 74, N-{5-[(S)-2-(butylamino)-1-hydroxyethyl]-1,3-thiazol-2-yl}2-methylpropionamide]: the Emax at 10 µM was under 25% with L6-myotubes [1] (setting [3]) and 25 to 50% in the test on L6-myotubes [2] (setting [4]).
The like results for `CC(C)(C)NC[C@H](O)c1ccc(Cl)cn1` [Compound 147, (S)-2-(tert-butylamino)-1-(5-chloro-2-pyridyl)-1-ethanol] were, in that order, under 25% and 25 to 50%.
Take `CC(C)(CC[C@H]1CC[C@@H](C(=O)O)CC1)NC[C@H](O)c1cncc(F)c1` [Compound 347, (1S,4s)-4-{3-[(R)-2-(5-fluoro-3-pyridyl)-2-hydroxyethylamino]-3-methylbutyl} cyclohexanecarboxylic acid]: the Emax at 10 µM was under 25% in the test with L6-myotubes [1] (setting [5]) and over 75% in the test with L6-myotubes [2] (setting [6]).
With `CC1(C)C[C@H]([C@H](O)c2cccc(F)c2)N1` [Compound 198, (R)-[(R)-4,4-dimethyl-2-azetidinyl](m-fluorophenyl)methanol], the results for the Emax at 10 µM with L6-myotubes [1] (setting [5]) and in the test with L6-myotubes [2] (setting [6]) were under 25% and over 75%, respectively.
As for `CC1(C)CCC[C@@H]([C@@H](O)c2cccc(F)c2)N1` [Compound 191], the Emax at 10 µM in the test with L6-myotubes [1] (setting [3]) was under 25%; in the test on L6-myotubes [2] (setting [4]), 25 to 50%.
For `CO[C@H]1CC[C@H](CCC(C)(C)NC[C@H](O)c2cccc(F)c2)CC1` [Compound 265, (R)-2-{1,1-dimethyl-3-[(1r,4S)-4-methoxycyclohexyl]propylamino}-1-(m-fluorophenyl)-1-ethanol], the Emax at 10 µM in the test on L6-myotubes [1] (setting [5]) is under 25%; in the test with L6-myotubes [2] (setting [6]) it was 50 to 75%.
For the molecule `CCC[C@H]1CCC[C@H]([C@@H](O)c2ccc(F)cc2)N1` [Compound 105], the Emax at 10 µM was under 25% with L6-myotubes [1] (setting [3]) and 25 to 50% in the test with L6-myotubes [2] (setting [4]).
As for `CCCCNC(C)C(O)c1ccc(O)cc1` (stereo not drawn) [Compound 12, 2-(butylamino)-1-(p-hydroxyphenyl)-1-propanol], the Emax at 10 µM with L6-myotubes [1] (setting [3]) is under 25%; with L6-myotubes [2] (setting [4]), 50 to 75%.
As for `CC(C)(C[C@H]1CC[C@H](NC(=O)C(F)(F)F)CC1)NC[C@H](O)c1cccc(F)c1` [Compound 433], the “Biological example 3 (CAMP)” value in the test with L6-myotubes [1] (setting [5]) is “+ (if it is between 50 and 25% it is denoted with +)”. The “Biological example 2 (GU)” value in the test on L6-myotubes [2] (setting [6]) is on record as “+++ (If a compound at 10 μM shows activity of more than 75% of that of isoproterenol at 10 μM, the activity is denoted with +++)”.
In the case of `CCC[C@H]1CCC[C@H]([C@H](O)c2ccc(F)c(F)c2)N1` [Compound 67, (R)-[(2R,6S)-6-propyl-2-piperidyl](3,4-difluorophenyl)methanol], the results for the Emax at 10 µM in the test on L6-myotubes [1] (setting [3]) and in the test on L6-myotubes [2] (setting [4]) were under 25% and 25 to 50%, respectively.
`O[C@@H](CNCC[C@H]1CC[C@H](O)CC1)c1cncc(F)c1` [Compound 294, (R)-1-(5-fluoro-3-pyridyl)-2-{2-[(1r,4R)-4-hydroxycyclohexyl]ethylamino}-1-ethanol]: the figures for the Emax at 10 µM with L6-myotubes [1] (setting [5]) and in the test on L6-myotubes [2] (setting [6]) were under 25% and 25 to 50%, respectively.
With `CC(C)(C[C@H]1CC[C@@H](NS(=O)(=O)C(F)(F)F)CC1)NC[C@H](O)c1cccc(F)c1` [Compound 493, (R)-2-{1,1-dimethyl-2-[(1s,4S)-4-(trifluoromesylamino)cyclohexyl]ethylamino}-1-(m-fluorophenyl)-1-ethanol], the figures for the Emax at 10 µM with L6-myotubes [1] (setting [5]) and in the test with L6-myotubes [2] (setting [6]) were under 25% and 25 to 50%, respectively.
With `CC12CC(C1)[C@H]([C@@H](O)c1cccc(Cl)c1)N2` [Compound 208], the Emax at 10 µM in the test with L6-myotubes [1] (setting [5]) is under 25%; in the test with L6-myotubes [2] (setting [6]), 50 to 75%.
For the molecule `CCCC(C)NCC(O)c1cc(Cl)c(N)c(Cl)c1` (stereo not drawn) [Compound 22, 1-(4-amino-3,5-dichlorophenyl)-2-(1-methylbutylamino)-1-ethanol], the Emax at 10 µM in the test on L6-myotubes [1] (setting [3]) is 50 to 75%; in the test with L6-myotubes [2] (setting [4]), over 75%.
As for `CCCCNC[C@H](O)c1cnc(N)nc1` [Compound 89, (R)-1-(2-amino-5-pyrimidinyl)-2-(butylamino)-1-ethanol], the results for the Emax at 10 µM in the test on L6-myotubes [1] (setting [3]) and in the test on L6-myotubes [2] (setting [4]) were under 25% and 50 to 75%, respectively.
`COC(=O)[C@H]1CC[C@H](CCC(C)(C)NC[C@H](O)c2cccc(F)c2)CC1` [Compound 350, methyl (1R,4r)-4-{3-[(R)-2-(m-fluorophenyl)-2-hydroxyethylamino]-3-methylbutyl} cyclohexanecarboxylate]: the Emax at 10 µM is under 25% in the test on L6-myotubes [1] (setting [5]) and over 75% with L6-myotubes [2] (setting [6]).
The matching figures for `CC(C)(C[C@H]1CC[C@@H](N)CC1)NC[C@H](O)c1cncc(F)c1` [Compound 466]: under 25% and 50 to 75%.
Take `CC(=O)N[C@H]1CC[C@@H](CC(C)(C)NC[C@H](O)c2cncc(F)c2)CC1` [Compound 467]: the Emax at 10 µM in the test with L6-myotubes [1] (setting [5]) is under 25%; with L6-myotubes [2] (setting [6]), over 75%.
For `CCC[C@@H]1CCC[C@H]([C@H](O)c2ccccc2F)N1` [Compound 97, (R)-[(2R,6R)-6-propyl-2-piperidyl](o-fluorophenyl)methanol], the Emax at 10 µM with L6-myotubes [1] (setting [3]) was under 25%; with L6-myotubes [2] (setting [4]) it was 50 to 75%.
With `CC(=O)N(C)[C@H]1CC[C@H](CC(C)(C)NC[C@H](O)c2cncc(F)c2)CC1` [Compound 506], the results for the Emax at 10 µM with L6-myotubes [1] (setting [5]) and in the test on L6-myotubes [2] (setting [6]) were 25 to 50% and over 75%, respectively.
The like results for `CC12CC(C1)[C@@H]([C@@H](O)c1cncc(F)c1)N2` [Compound 221, (S)-{(S)-1-methyl-2-azabicyclo[[2.1.1]]hex-3-yl}(5-fluoro-3-pyridyl)methanol] were, in that order, under 25% and 50 to 75%.
As for `O[C@@H](CNCC[C@H]1CC[C@@H](OCc2ccccc2)CC1)c1cccc(F)c1` [Compound 287, (R)-1-(m-fluorophenyl)-2-{2-[(1s,4S)-4-(benzyloxy)cyclohexyl]ethylamino}-1-ethanol], the Emax at 10 µM was under 25% with L6-myotubes [1] (setting [5]) and 50 to 75% in the test with L6-myotubes [2] (setting [6]).
The matching figures for `CC1(C)C[C@@H]([C@@H](O)c2ccccc2F)N1` [Compound 205, (S)-[(S)-4,4-dimethyl-2-azetidinyl](o-fluorophenyl)methanol]: under 25% and 25 to 50%.
Consider `CC(C)(C[C@H]1CC[C@@H](NC(=O)C2CC2)CC1)NC[C@H](O)c1cccc(F)c1` [Compound 447], for which the Emax at 10 µM in the test on L6-myotubes [1] (setting [5]) is under 25%; in the test with L6-myotubes [2] (setting [6]), over 75%.
Regarding `CO[C@H]1CC[C@H](CNC[C@H](O)c2cccc(F)c2)CC1` [Compound 228, (R)-1-(m-fluorophenyl)-2-({[(1r,4R)-4-methoxycyclohexyl]methyl}amino)-1-ethanol], the results for the Emax at 10 µM with L6-myotubes [1] (setting [5]) and in the test on L6-myotubes [2] (setting [6]) were under 25% and 50 to 75%, respectively.
With `CC1(C)C[C@@H]([C@H](O)c2ccccc2F)N1` [Compound 202, (R)-[(S)-4,4-dimethyl-2-azetidinyl](o-fluorophenyl)methanol], the Emax at 10 µM with L6-myotubes [1] (setting [5]) and in the test on L6-myotubes [2] (setting [6]) was under 25% each time.
As for `CCCCCCNCC(O)c1ccc(O)cc1` (stereo not drawn) [Compound 17, 2-(hexylamino)-1-(p-hydroxyphenyl)-1-ethanol], the Emax at 10 µM in the test with L6-myotubes [1] (setting [3]) was under 25%; with L6-myotubes [2] (setting [4]), 25 to 50%.
For the molecule `CCC[C@H]1CCCC[C@@H]([C@@H](O)c2cncc(F)c2)N1` [Compound 235, (S)-[(2S,7S)-7-propyl-2-azepanyl](5-fluoro-3-pyridyl)methanol], the Emax at 10 µM in the test on L6-myotubes [1] (setting [5]) and in the test on L6-myotubes [2] (setting [6]) was under 25% each time.
Turning to `CC(=O)N[C@H]1CC[C@@H](CC(C)(C)NC[C@H](O)c2cccnc2C)CC1` [Compound 436], the figures for the Emax at 10 µM with L6-myotubes [1] (setting [5]) and with L6-myotubes [2] (setting [6]) were under 25% and 50 to 75%, respectively.
Turning to `CCCCNCC(O)c1ccc(Cl)c(O)c1` (stereo not drawn) [Compound 34, 2-(butylamino)-1-(4-chloro-3-hydroxyphenyl)-1-ethanol], the Emax at 10 µM with L6-myotubes [1] (setting [3]) was under 25%; in the test on L6-myotubes [2] (setting [4]), over 75%.
On to `CS(=O)(=O)Nc1cccc(CC23CCC([C@@H](O)c4cccc(F)c4)(CC2)N3)c1` [Compound 515, (R)-(m-fluorophenyl)(4-{[m-(mesylamino)phenyl]methyl}-7-azabicyclo[[2.2.1]]hept-1-yl)methanol], for which, in the test on L6-myotubes [1] (setting [5]), the “Biological example 3 (CAMP)” value was “+ (if it is between 50 and 25% it is denoted with +)”. In the test on L6-myotubes [2] (setting [6]), the “Biological example 2 (GU)” value was “++ (if it is between 75 and 50% it is denoted with ++)”.
As to `CC(C)(NC[C@H](O)c1cccc(F)c1)[C@H]1CC[C@@H](OCC(=O)O)CC1` [Compound 408], the Emax at 10 µM in the test on L6-myotubes [1] (setting [5]) was under 25%; in the test with L6-myotubes [2] (setting [6]), 50 to 75%.
For `CCCCCCCCNCC(O)c1ccc(O)cc1` (stereo not drawn) [Compound 18, 1-(p-hydroxyphenyl)-2-(octylamino)-1-ethanol], the Emax at 10 µM was under 25% in the test on L6-myotubes [1] (setting [3]) and 25 to 50% in the test with L6-myotubes [2] (setting [4]).
With `CC(C)(C[C@H]1CC[C@H](C(=O)O)CC1)NC[C@H](O)c1cncc(F)c1` [Compound 356, (1R,4r)-4-{2-[(R)-2-(5-fluoro-3-pyridyl)-2-hydroxyethylamino]-2-methylpropyl} cyclohexanecarboxylic acid], the Emax at 10 µM in the test with L6-myotubes [1] (setting [5]) and with L6-myotubes [2] (setting [6]) was under 25% in each case.
In the case of `CC1(NC[C@H](O)c2cccc(F)c2)CCC1` [Compound 83, (R)-1-(m-fluorophenyl)-2-(1-methylcyclobutylamino)-1-ethanol], the Emax at 10 µM is 25 to 50% in the test with L6-myotubes [1] (setting [3]) and over 75% in the test with L6-myotubes [2] (setting [4]).
As for `O[C@@H](c1cccc(F)c1)C12CCC(CCCc3ccccc3)(CC1)N2` [Compound 535, (S)-(m-fluorophenyl){4-(3-phenylpropyl)-7-azabicyclo[[2.2.1]]hept-1-yl}methanol], the Emax at 10 µM is under 25% in the test with L6-myotubes [1] (setting [5]) and 25 to 50% with L6-myotubes [2] (setting [6]).
